These are literature values, as cited in patent publication US20250049666A1, “LIQUID COMPOSITION HAVING ENHANCED ANTIMICROBIAL ACTIVITY” (Conopco Inc., d/b/a UNILEVER, priority 2021, published 2025).

For `CCCCCCCC(=O)O` [Caprylic acid], the pKa (commonly the negative logarithm of the acid dissociation constant) was 4.72.
Consider Capryloyl salicylic acid, for which the pKa result is on record as “acid (pKa = 3.83, log”. Further, the “log P” value (octanol/water) was “P = 4.83)”.
